Source: US20250195357A1, “CLEAR SCALP COMPOSITION WITH DISCRETE PARTICLES” (The Procter & Gamble Company, priority 2022, published 2025)

Assays:
[1] = Solubility of scalp actives; type: physicochemical
[2] = cited from earlier work

SMILES | Oil solubility [1] | Solubility in water [2] | Water solubility ([1]; at pH of 4.8 and above)
CC1CCC(C(C)C)C(O)C1 (stereo not shown) [menthol] | oil soluble |  | 
Cc1cc(CC(C)CC(C)(C)C)n(O)c(=O)c1.NCCO (stereo not shown) [piroctone olamine] | oil soluble | very limited solubility | 
O=C(O)c1ccccc1O [salicylic acid] |  |  | water soluble
